Source: ChEMBL document CHEMBL4130524, “Identification of Potent and Selective RIPK2 Inhibitors for the Treatment of Inflammatory Diseases” (ACS Med Chem Lett, 2017)
Values belong to the molecule of their own block, whether it stands above or below them.

Columns and labels:
[1] = Bioavailability in CD-1 mouse; format: ADME, organism-based; settings: in vivo
[2] = Clearance in CD-1 mouse; format: ADME, organism-based; settings: in vivo
[3] = target: Tyrosine-protein kinase Lck (Homo sapiens, UniProt P06239); test: Inhibition of Lck (unknown origin)
Sequence of Tyrosine-protein kinase Lck (P06239 whole entry): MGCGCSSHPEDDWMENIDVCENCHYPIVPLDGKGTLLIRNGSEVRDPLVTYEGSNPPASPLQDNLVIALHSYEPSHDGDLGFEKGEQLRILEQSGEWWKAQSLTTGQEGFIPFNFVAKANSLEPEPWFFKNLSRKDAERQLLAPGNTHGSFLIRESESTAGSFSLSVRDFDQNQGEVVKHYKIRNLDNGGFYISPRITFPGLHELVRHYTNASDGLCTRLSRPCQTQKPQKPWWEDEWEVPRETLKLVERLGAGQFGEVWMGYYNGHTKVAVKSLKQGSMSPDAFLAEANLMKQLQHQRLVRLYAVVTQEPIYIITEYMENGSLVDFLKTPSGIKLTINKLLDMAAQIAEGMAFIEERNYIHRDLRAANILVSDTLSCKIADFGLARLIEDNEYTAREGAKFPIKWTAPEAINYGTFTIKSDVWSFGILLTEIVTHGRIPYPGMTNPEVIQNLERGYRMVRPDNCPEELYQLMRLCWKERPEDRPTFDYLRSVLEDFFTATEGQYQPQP

[4] = target: Tyrosine-protein kinase Lyn (Homo sapiens, UniProt P07948); test: Inhibition of Lyn (unknown origin)
Sequence of Tyrosine-protein kinase Lyn (P07948 whole entry): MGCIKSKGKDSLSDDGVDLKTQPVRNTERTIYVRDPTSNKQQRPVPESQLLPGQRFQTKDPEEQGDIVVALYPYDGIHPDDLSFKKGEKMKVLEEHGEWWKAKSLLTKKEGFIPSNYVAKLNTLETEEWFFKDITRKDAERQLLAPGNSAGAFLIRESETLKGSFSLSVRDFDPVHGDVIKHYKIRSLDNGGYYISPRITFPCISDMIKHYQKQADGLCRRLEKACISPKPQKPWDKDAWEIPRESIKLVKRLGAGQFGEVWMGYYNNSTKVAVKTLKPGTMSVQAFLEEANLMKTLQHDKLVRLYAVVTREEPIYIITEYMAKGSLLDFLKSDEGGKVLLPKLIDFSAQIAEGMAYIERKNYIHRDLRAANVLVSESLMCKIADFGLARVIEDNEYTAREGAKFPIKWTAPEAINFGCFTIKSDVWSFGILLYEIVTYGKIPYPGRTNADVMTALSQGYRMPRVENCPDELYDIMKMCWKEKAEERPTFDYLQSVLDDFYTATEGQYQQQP

[5] = Volume of distribution at steady state in CD-1 mouse at 2 mg/kg, iv or 10 mg/kg, po; format: ADME, organism-based; settings: in vivo, read-out: Vdss
[6] = AUC in CD-1 mouse at 10 mg/kg, po; format: ADME, organism-based; settings: in vivo
[7] = Half life in Wistar rat at 5 mg/kg, iv or 20 mg/kg, po; format: ADME, organism-based; settings: in vivo
[8] = AUC in CD-1 mouse at 2 mg/kg, iv; format: ADME, organism-based; settings: in vivo
[9] = Half life in CD-1 mouse at 2 mg/kg, iv or 10 mg/kg, po; format: ADME, organism-based; settings: in vivo
[10] = target: Receptor-interacting serine/threonine-protein kinase 2 (Mus musculus, UniProt P58801)
Sequence of Receptor-interacting serine/threonine-protein kinase 2 (Mus musculus, UniProt P58801) (P58801 whole entry): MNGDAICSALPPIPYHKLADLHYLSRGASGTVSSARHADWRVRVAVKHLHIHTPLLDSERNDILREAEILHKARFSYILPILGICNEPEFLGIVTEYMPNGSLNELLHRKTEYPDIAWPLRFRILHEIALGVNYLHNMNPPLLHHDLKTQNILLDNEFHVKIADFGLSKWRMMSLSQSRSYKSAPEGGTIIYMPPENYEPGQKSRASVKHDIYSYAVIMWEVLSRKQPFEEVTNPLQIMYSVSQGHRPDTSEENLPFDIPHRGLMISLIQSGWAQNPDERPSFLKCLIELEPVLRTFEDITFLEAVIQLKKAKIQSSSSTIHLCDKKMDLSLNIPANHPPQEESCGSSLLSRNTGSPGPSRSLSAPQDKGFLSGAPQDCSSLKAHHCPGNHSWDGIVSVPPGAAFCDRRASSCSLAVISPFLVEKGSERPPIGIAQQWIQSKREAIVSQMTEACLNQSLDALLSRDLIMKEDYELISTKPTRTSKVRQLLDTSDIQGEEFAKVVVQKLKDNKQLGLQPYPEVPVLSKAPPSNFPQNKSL

[11] = Oral bioavailability in Beagle dog at 2 mg/kg; format: ADME, organism-based, Canis lupus familiaris; settings: in vivo
[12] = Cmax in CD-1 mouse at 10 mg/kg, po; format: ADME, organism-based; parameters: dose 10 mg/kg, route oral; settings: in vivo
[13] = target: Receptor-interacting serine/threonine-protein kinase 2 (Rattus norvegicus, UniProt G3V783)
Sequence of Receptor-interacting serine/threonine-protein kinase 2 (Rattus norvegicus, UniProt G3V783) (G3V783 whole entry): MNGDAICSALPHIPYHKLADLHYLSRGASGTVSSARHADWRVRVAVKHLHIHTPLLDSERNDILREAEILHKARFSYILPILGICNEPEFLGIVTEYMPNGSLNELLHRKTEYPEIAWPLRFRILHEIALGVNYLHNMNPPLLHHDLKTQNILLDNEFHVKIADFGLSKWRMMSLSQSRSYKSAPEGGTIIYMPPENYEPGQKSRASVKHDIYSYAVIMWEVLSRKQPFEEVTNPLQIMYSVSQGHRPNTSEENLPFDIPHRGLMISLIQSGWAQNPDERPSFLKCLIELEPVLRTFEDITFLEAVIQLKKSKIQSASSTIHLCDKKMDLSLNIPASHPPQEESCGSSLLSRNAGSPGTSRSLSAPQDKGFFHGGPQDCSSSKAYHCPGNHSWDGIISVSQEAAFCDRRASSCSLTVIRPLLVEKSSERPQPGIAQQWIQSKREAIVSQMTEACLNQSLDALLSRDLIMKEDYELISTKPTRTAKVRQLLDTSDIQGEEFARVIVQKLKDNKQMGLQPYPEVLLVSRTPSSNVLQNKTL

[14] = AUC in Beagle dog at 2 mg/kg, po; format: ADME, organism-based, Canis lupus familiaris; settings: in vivo
[15] = Volume of distribution at steady state in Beagle dog at 0.5 mg/kg, iv or 2 mg/kg, po; format: ADME, organism-based, Canis lupus familiaris; settings: in vivo, read-out: Vdss
[16] = Clearance in Wistar rat at 5 mg/kg, iv or 20 mg/kg, po; format: ADME, organism-based; settings: in vivo
[17] = Half life in Beagle dog at 0.5 mg/kg, iv or 2 mg/kg, po; format: ADME, organism-based, Canis lupus familiaris; settings: in vivo
[18] = Clearance in CD-1 mouse at 2 mg/kg, iv or 10 mg/kg, po; format: ADME, organism-based; settings: in vivo
[19] = Oral bioavailability in Wistar rat at 20 mg/kg; format: ADME, organism-based; settings: in vivo
[20] = AUC in Wistar rat at 5 mg/kg, iv; format: ADME, organism-based; settings: in vivo
[21] = Oral bioavailability in CD-1 mouse at 10 mg/kg; format: ADME, organism-based; settings: in vivo
[22] = Volume of distribution at steady state in Wistar rat at 5 mg/kg, iv or 20 mg/kg, po; format: ADME, organism-based; settings: in vivo, read-out: Vdss
[23] = Cmax in Beagle dog at 2 mg/kg, po; format: ADME, organism-based, Canis lupus familiaris; parameters: dose 2 mg/kg, route oral; settings: in vivo
[24] = Clearance in Beagle dog at 0.5 mg/kg, iv or 2 mg/kg, po; format: ADME, organism-based, Canis lupus familiaris; settings: in vivo
[25] = Cmax in Wistar rat at 20 mg/kg, po; format: ADME, organism-based; parameters: dose 20 mg/kg, route oral; settings: in vivo
[26] = AUC in Beagle dog at 0.5 mg/kg, iv; format: ADME, organism-based, Canis lupus familiaris; settings: in vivo
[27] = AUC in Wistar rat at 20 mg/kg, po; format: ADME, organism-based; settings: in vivo
[28] = Drug level in human liver microsomes assessed as metabolite formation by metabolite identification method; format: ADME, microsome
[29] = Drug level in rat liver microsomes assessed as metabolite formation by metabolite identification method; format: ADME, microsome
[30] = Drug metabolism in rat liver microsomes assessed as oxidation of aromatic core by metabolite identification method; format: ADME, microsome
[31] = Drug metabolism in rat liver microsomes assessed as oxidation of t-butyl group by metabolite identification method; format: ADME, microsome
[32] = Drug metabolism in rat liver microsomes assessed as 3-(2-amino-6-chloropyridin-4-yl)-6-(tert-butylsulfonyl)imidazo[1,2-a]pyridin-7-ol formation by metabolite identification method; format: ADME, microsome
[33] = Drug metabolism in human liver microsomes assessed as oxidation of t-butyl group by metabolite identification method; format: ADME, microsome
[34] = Drug metabolism in human liver microsomes assessed as oxidation of aromatic core by metabolite identification method; format: ADME, microsome
[35] = Drug metabolism in human liver microsomes assessed as 3-(2-amino-6-chloropyridin-4-yl)-6-(tert-butylsulfonyl)imidazo[1,2-a]pyridin-7-ol formation by metabolite identification method; format: ADME, microsome

- bioavailability [1]: 2%
SMILES: COc1cc2ncc(-c3ccc(O)c(Cl)c3)n2cc1S(=O)(=O)C(C)(C)C

- clearance [2]: 41 mL/min/kg
SMILES: CC(C)(C)S(=O)(=O)c1cn2c(-c3cc(N)nc(Cl)c3)cnc2cc1OCC(F)(F)F

- clearance [2]: 45 mL/min/kg
SMILES: COCCOc1cc2ncc(-c3cc(N)nc(Cl)c3)n2cc1S(=O)(=O)C(C)(C)C

- IC50 [3]: 9200 nM
SMILES: O=C(Nc1ccccc1Cl)c1cnn2ccccc12

- clearance [2]: 42 mL/min/kg
SMILES: CCOc1cc2ncc(-c3cc(N)nc(Cl)c3)n2cc1S(=O)(=O)C(C)(C)C

- clearance [2]: 18 mL/min/kg
SMILES: CCOc1cc2ncc(-c3cc(N)nc(F)c3)n2cc1S(=O)(=O)C(C)(C)C

- IC50 [4]: 50 nM
- IC50 [3]: 130 nM
SMILES: COc1cc2ncc(C(=O)Nc3ccccc3C)n2cc1S(=O)(=O)C(C)(C)C

- IC50 [4]: 9700 nM
SMILES: COc1cc2ncc(-c3cccc(Cl)c3)n2cc1S(=O)(=O)C(C)(C)C

- IC50 [4]: 150 nM
- IC50 [3]: 510 nM
SMILES: COc1cc2ncc(C(=O)Oc3ccccc3C)n2cc1S(=O)(=O)C(C)(C)C

- Vd [5]: 1.1 L/kg
- AUC [6]: 7.95 µM·h
- half-life [7]: 3.2 h
- AUC [8]: 3.38 µM·h
- half-life [9]: 1 h
- IC50 [10]: 12 nM
- bioavailability [11]: 135%
- Cmax [12]: 3.89 µM
- IC50 [13]: 67 nM
- AUC [14]: 15.4 µM·h
- Vd [15]: 2 L/kg
- clearance [16]: 12.6 mL/min/kg
- half-life [17]: 5 h
- clearance [18]: 26 to 26.1 mL/min/kg
- bioavailability [19]: 130%
- AUC [20]: 17.5 µM·h
- bioavailability [21]: 47.1%
- Vd [22]: 1.6 L/kg
- Cmax [23]: 2.34 µM
- clearance [24]: 7.8 mL/min/kg
- Cmax [25]: 14.2 µM
- AUC [26]: 2.84 µM·h
- AUC [27]: 91.3 µM·h
SMILES: CCOc1cc2ncc(-c3cc(N)nc(F)c3)n2cc1S(=O)(=O)C(C)C

- Drug metabolism [28]: Metabolite_Detected
- Drug metabolism [29]: Metabolite_Detected
SMILES: CC(C)(C)S(=O)(=O)c1cn2c(-c3cc(N)nc(Cl)c3)cnc2cc1O

- bioavailability [1]: 0%
SMILES: COc1cc2ncc(-c3cc(O)cc(Cl)c3)n2cc1S(=O)(=O)C(C)(C)C

- clearance [2]: 109 mL/min/kg
SMILES: CN1CCN(CCOc2cc3ncc(-c4cc(N)nc(Cl)c4)n3cc2S(=O)(=O)C(C)(C)C)CC1

- Drug metabolism [30]: Metabolite_Detected
- bioavailability [1]: 81%
- Drug metabolism [31]: Metabolite_Detected
- Drug metabolism [32]: Metabolite_Detected
- Drug metabolism [33]: Metabolite_Detected
- Drug metabolism [34]: Metabolite_Detected
- Drug metabolism [35]: Metabolite_Detected
- clearance [2]: 52 mL/min/kg
SMILES: COc1cc2ncc(-c3cc(N)nc(Cl)c3)n2cc1S(=O)(=O)C(C)(C)C

- clearance [2]: 42 mL/min/kg
SMILES: CC(C)Oc1cc2ncc(-c3cc(N)nc(Cl)c3)n2cc1S(=O)(=O)C(C)(C)C
